Test results as given in ChEMBL document CHEMBL1125700, “Conformational properties of semirigid antipsychotic drugs: the pharmacophore for dopamine D-2 antagonist activity” (J Med Chem, 1991).
pKi: −log10 of the molar value. Where “and” joins values, the source holds several entries; their conditions need not be identical. Equal values may be shown once.

Key:
[1] = biological target: T1, Sigma non-opioid intracellular receptor 1 (Homo sapiens, UniProt Q99720); test: The compound was tested for binding affinity against sigma receptor using DTG as radioligand
T1 sequence (Q99720 whole entry): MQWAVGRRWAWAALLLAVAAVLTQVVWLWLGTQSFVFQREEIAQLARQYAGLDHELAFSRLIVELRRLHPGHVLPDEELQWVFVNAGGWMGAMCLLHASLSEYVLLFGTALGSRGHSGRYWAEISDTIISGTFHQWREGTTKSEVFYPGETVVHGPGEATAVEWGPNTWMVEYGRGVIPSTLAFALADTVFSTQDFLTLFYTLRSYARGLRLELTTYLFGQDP

[2] = biological target: T2, D(1A) dopamine receptor (Homo sapiens, UniProt P21728); test: Binding affinity determined in radioreceptor binding assay by using [3H]SCH-23390 radioligand against dopamine receptor D1
T2 sequence (P21728 whole entry): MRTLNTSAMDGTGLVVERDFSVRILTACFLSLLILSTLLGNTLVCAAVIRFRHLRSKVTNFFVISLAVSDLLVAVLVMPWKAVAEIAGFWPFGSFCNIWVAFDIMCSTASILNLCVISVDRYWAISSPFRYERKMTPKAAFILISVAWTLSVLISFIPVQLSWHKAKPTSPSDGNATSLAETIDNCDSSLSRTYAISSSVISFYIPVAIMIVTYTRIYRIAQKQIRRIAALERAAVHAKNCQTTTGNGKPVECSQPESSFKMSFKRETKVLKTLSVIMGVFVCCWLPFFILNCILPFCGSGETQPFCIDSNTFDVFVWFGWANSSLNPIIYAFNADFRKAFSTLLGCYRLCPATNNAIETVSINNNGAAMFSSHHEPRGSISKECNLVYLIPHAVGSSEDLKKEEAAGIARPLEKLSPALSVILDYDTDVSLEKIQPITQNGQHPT

[3] = biological target: Muscarinic acetylcholine receptor; test: The compound was tested for binding affinity against muscarinic acetylcholine receptor using QNB as radioligand; format: protein assay
[4] = biological target: T3, Alpha-1A adrenergic receptor (Homo sapiens, UniProt P35348); test: The compound was tested for binding affinity against Alpha-1 adrenergic receptor using WB-4101 as radioligand
T3 sequence (P35348 whole entry): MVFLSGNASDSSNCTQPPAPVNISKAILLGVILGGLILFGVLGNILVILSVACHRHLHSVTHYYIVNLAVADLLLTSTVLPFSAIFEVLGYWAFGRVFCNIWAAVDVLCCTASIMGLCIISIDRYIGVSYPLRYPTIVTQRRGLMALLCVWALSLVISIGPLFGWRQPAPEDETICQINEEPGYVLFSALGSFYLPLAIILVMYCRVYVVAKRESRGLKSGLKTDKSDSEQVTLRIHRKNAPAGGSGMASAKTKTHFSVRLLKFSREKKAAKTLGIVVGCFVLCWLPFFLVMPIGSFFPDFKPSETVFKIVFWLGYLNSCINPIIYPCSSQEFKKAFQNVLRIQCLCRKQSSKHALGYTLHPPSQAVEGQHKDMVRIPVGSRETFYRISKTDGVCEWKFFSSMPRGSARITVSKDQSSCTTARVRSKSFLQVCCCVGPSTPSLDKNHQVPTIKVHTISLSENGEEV

[5] = biological target: Serotonin 2 (5-HT2) receptor (Homo sapiens, UniProt P41595+P28223+P28335); test: The compound was tested for binding affinity against 5-hydroxytryptamine 2 receptor using ketanserin as radioligand; format: protein assay
[6] = biological target: T4, D(2) dopamine receptor (Homo sapiens, UniProt P14416); test: The compound was tested for binding affinity against dopamine receptor D2 using raclopride as radioligand
T4 sequence (P14416 whole entry): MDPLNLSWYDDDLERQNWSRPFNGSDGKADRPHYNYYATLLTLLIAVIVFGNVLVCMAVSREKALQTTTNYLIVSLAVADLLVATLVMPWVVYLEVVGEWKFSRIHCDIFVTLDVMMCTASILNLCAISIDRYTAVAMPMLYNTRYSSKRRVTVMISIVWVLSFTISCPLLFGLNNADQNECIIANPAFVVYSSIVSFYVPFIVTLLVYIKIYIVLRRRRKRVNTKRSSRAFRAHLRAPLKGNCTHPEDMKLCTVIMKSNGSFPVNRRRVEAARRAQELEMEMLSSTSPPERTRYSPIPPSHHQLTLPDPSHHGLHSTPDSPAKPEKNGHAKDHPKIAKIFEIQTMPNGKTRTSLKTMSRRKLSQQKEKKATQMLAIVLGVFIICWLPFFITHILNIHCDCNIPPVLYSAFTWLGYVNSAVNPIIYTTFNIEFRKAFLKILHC

[7] = biological target: T1, Sigma non-opioid intracellular receptor 1; test: The compound was tested for binding affinity against Sigma opioid receptor using DTG as radioligand
[8] = biological target: T4, D(2) dopamine receptor; test: The compound was tested for binding affinity against Dopamine receptor D2 using raclopride as radioligand
[9] = biological target: Muscarinic acetylcholine receptor; test: The compound was tested for binding affinity against Muscarinic acetylcholine receptor using QNB as radioligand; format: protein assay
[10] = biological target: T2, D(1A) dopamine receptor; test: The compound was tested for binding affinity against Dopamine receptor D1 using SCH-23390 as radioligand

Compound	pKi [1]	pKi [2]	Ki [3]	pKi [4]	Ki [5]	pKi [6]	pKi [7]	pKi [8]	Ki [9]	pKi [10]
CN(C)C1C=CC2(CC1)c1ccccc1C=Cc1ccc(Cl)cc12 (centres undefined)	5.80	9.52	4.3 nM	7.44	1 nM	9.18				
CN(C)C1C=CC2(CC1)c1ccccc1CCc1ccc(Cl)cc12 (centres undefined)	6.26 and 5.85		94 nM and 43 nM							
CN(C)C1C=CC2(CC1)c1ccccc1C=Cc1ccc(Cl)cc12 (single isomer, unassigned; enantiomer 2)				7.21	1.3 nM		6.10	8.19	7.2 nM	8.51
